# Measurements from ChEMBL document CHEMBL1157124, “Synthesis and anticancer evaluation of alpha-lipoic acid derivatives” (Bioorg Med Chem Lett, 2010).
# Assays:
# Format in all cases: functional
# [1] = test system: KB; experiment: Cytotoxicity against human KB cells assessed as growth inhibition at 1 ug/ml after 24 hrs by MTT assay; details: read-out: GI
# [2] = test system: NCI-H460; experiment: Cytotoxicity against human NCI-H460 cells assessed as growth inhibition at 10 ug/ml after 24 hrs by MTT assay; details: NCI-H460, 24 h, read-out: GI
# [3] = test system: NCI-H460; experiment: Cytotoxicity against human NCI-H460 cells assessed as growth inhibition at 1 ug/ml after 24 hrs by MTT assay; details: NCI-H460, 24 h, read-out: GI
# [4] = test system: Bel-7402; experiment: Cytotoxicity against human Bel7402 cells assessed as growth inhibition at 0.1 ug/ml after 24 hrs by MTT assay; details: Bel-7402, 24 h, read-out: GI
# [5] = Cytotoxicity against human HO8910 cells assessed as growth inhibition at 0.1 ug/ml after 24 hrs by MTT assay; details: HO-8910, 24 h, read-out: GI
# [6] = test system: KB; experiment: Cytotoxicity against human KB cells assessed as growth inhibition at 10 ug/ml after 24 hrs by MTT assay; details: read-out: GI
# [7] = test system: NCI-H460; experiment: Cytotoxicity against human NCI-H460 cells assessed as growth inhibition at 0.1 ug/ml after 24 hrs by MTT assay; details: NCI-H460, 24 h, read-out: GI
# [8] = test system: KB; experiment: Cytotoxicity against human KB cells assessed as growth inhibition at 0.1 ug/ml after 24 hrs by MTT assay; details: read-out: GI
# [9] = Cytotoxicity against human HO8910 cells assessed as growth inhibition at 1 ug/ml after 24 hrs by MTT assay; details: HO-8910, 24 h, read-out: GI
# [10] = test system: Bel-7402; experiment: Cytotoxicity against human Bel7402 cells assessed as growth inhibition at 10 ug/ml after 24 hrs by MTT assay; details: Bel-7402, 24 h, read-out: GI
# [11] = test system: Bel-7402; experiment: Cytotoxicity against human Bel7402 cells assessed as growth inhibition at 100 ug/ml after 24 hrs by MTT assay; details: Bel-7402, 24 h, read-out: GI
# [12] = test system: Bel-7402; experiment: Cytotoxicity against human Bel7402 cells assessed as growth inhibition at 1 ug/ml after 24 hrs by MTT assay; details: Bel-7402, 24 h, read-out: GI
# [13] = test system: KB; experiment: Cytotoxicity against human KB cells assessed as growth inhibition at 100 ug/ml after 24 hrs by MTT assay; details: read-out: GI
# [14] = test system: NCI-H460; experiment: Cytotoxicity against human NCI-H460 cells assessed as growth inhibition at 100 ug/ml after 24 hrs by MTT assay; details: NCI-H460, 24 h, read-out: GI
# [15] = Cytotoxicity against human HO8910 cells assessed as growth inhibition at 10 ug/ml after 24 hrs by MTT assay; details: HO-8910, 24 h, read-out: GI
# [16] = Cytotoxicity against human HO8910 cells assessed as growth inhibition at 100 ug/ml after 24 hrs by MTT assay; details: HO-8910, 24 h, read-out: GI
Structure (SMILES),inhibition of growth at 1 µg/mL [1] [%],inhibition of growth at 10 µg/mL [2] [%],inhibition of growth at 1 µg/mL [3] [%],inhibition of growth at 0.1 µg/mL [4] [%],inhibition of growth at 0.1 µg/mL [5] [%],inhibition of growth at 10 µg/mL [6] [%],inhibition of growth at 0.1 µg/mL [7] [%],inhibition of growth at 0.1 µg/mL [8] [%],inhibition of growth at 1 µg/mL [9] [%],inhibition of growth at 10 µg/mL [10] [%],inhibition of growth at 100 µg/mL [11] [%],inhibition of growth at 1 µg/mL [12] [%],inhibition of growth at 100 µg/mL [13] [%],inhibition of growth at 100 µg/mL [14] [%],inhibition of growth at 10 µg/mL [15] [%],inhibition of growth at 100 µg/mL [16] [%]
O=C(CCCCC(CCSC(=O)c1ccccc1)SC(=O)c1ccccc1)Nc1cccc(Cl)c1 (stereo unspecified),12.7,9.12,9.48,1.7,9.02,16.6,15.6,10.7,3.38,,,,,,,
O=C(CCCCC(S)CCS)Nc1cccc(Cl)c1 (stereo unspecified),,,7.2,3.09,,,9.78,,,3.22,16.1,1.14,8.04,24.8,,
O=C(CCCCC(CCSC(=O)c1ccccc1)SC(=O)c1ccccc1)Nc1ccc(Cl)cc1 (stereo unspecified),11.7,12.6,9.8,9.2,3.68,10.6,9.36,16.9,1.29,4.87,,9.62,5.78,,,
O=C(CCCCC(CCSC(=O)c1ccccc1)SC(=O)c1ccccc1)Nc1ccccc1 (stereo unspecified),,11.4,5.93,,3.12,2.67,0.6,1.52,3.79,,,,,,,
COc1ccc(NC(=O)CCCCC(S)CCS)cc1 (stereo unspecified),2.49,1.43,,5.35,,8.93,5.69,,1.79,10.4,22.5,3.96,22.2,23.5,4.14,12.6
O=C(CCCCC1CCSS1)Nc1ccc(Br)cn1 (stereo unspecified),4.33,38,13.1,,,35.1,9,,4.27,24.5,45.5,13.1,42.3,52,29.6,32.1
O=C(CCCCC(S)CCS)Nc1ccccc1Cl (stereo unspecified),,18.2,8.19,5.11,6.11,,6.36,,7.72,,,3.08,,12.1,,
CC(=O)SCCC(CCCCC(=O)O)SC(C)=O (stereo unspecified),12.4,6.04,9.89,10.3,,8.88,9.96,7.24,,9.22,8.35,12.8,8.03,11,1.61,
O=C(CCCCC1CCSS1)Nc1cccc2ccccc12 (stereo unspecified),8.37,,4.15,3.4,0.34,,2.36,,6.95,6.27,7.22,9.55,,,,
O=C(CCCCC(S)CCS)NO (stereo unspecified),10.6,17.7,1.17,5.96,,41.5,5.7,7.62,,28.2,47.5,9.12,58,43.7,26.2,49.3
